# According to patent EP0054589B1, “Organic phosphoric acid ester derivatives, a process for preparing the same and insecticidal, miticidal or nematocidal compositions containing the same” (priority 1980, dated 1982):
# Like-named read-outs stand apart in the source and are kept apart here.
# Assays:
# rice stem borer = test: Insecticidal effect on rice stem borer, 3rd-instar larvae (rice seedling dip); type: in vivo, Chilo suppressalis; conditions: after 72 hours, 25°C
# In short: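 Wettable-powder formulations were diluted in water to set concentrations, and rice seedlings were dipped in them. Ten 3rd-instar larvae were placed per capped cup with the treated seedlings and held at 25°C.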
# diamond back moth = test: Insecticidal effect on diamond-back moth (cabbage leaf dip); type: in vivo, Plutella xylostella; conditions: 100 ppm, after 72 hours, 25°C
# Experimental: (A) An emulsifiable concentrate prepared as described in Formulation Example 1 was diluted with water to a predetermined concentration and leaves of a cabbage were dipped into the dilute emulsion for 10 seconds followed by drying in air, and charged in a 60 ml volume cup made of vinyl chloride resin. Then, thirty 3rd-instar larvae of diamond back moth were put in each cup, and the cups were kept at 25°C. After 72 hours, percent mortality was assessed and the test was replicated 3 times for each treatment.
# (B) An emulsifiable concentrate prepared as described in Formulation Example 4 was diluted with water to a predetermined concentration and leaves of a cabbage were dipped into the dilute emulsion for 10 seconds followed by drying in air, and charged in a 60 ml volume cup made of vinyl chloride resin. Then, thirty 3rd-instar larvae of diamond back moth were put in each cup, and the cups were kept at 25°C. After 72 hours, percent mortality was assessed and the test was replicated 3 times for each treatment.
# smaller tea tortrix = test: Insecticidal effect on smaller tea tortrix (apple leaf dip); type: in vivo; conditions: Adoxophyes orana, foliar; Table 9; 100 ppm; after 72 hours, 25°C; wettable powder as Formulation Example 5; read-out: Percent Mortality
# Experimental: Leaves of an apple tree were dipped into a dilute water suspension of a wettable powder prepared as described in Formulation Example 5. After drying in air, the leaves were charged in a 60 ml volume cup made of vinyl chloride resin, and […] 3rd-instar larvae of smaller tea tortrix were put in each cup. The cups were capped and kept at 25°C. After 72 hours, the number of the surviving insects and the dead insects were recorded to determine percent mortality. In each treatment, 3 cups and 30 insects were used in total.
# apple leaf miner = test: Insecticidal effect on apple leaf miner (sprayed apple seedling); type: in vivo, Lithocolletis ringoniella; conditions: Phyllonorycter ringoniella, 336 h, 500 ppm, fourteen days after spraying
# Experimental: (A) A dilute water suspension of a wettable powder prepared as described in Formulation Example 5 was sufficiently sprayed using a spray-gun on a seedling of an apple tree planted in a bisque flower pot to which plant larvae of apple leaf miner just after hatching were parasitic. Thereafter the pots were placed in a green house. Fourteen days after the spraying, bores made by larvae were broken and percent mortality was assessed for all the leaves of each seedling. Three pots were used for each treatment.
# (B) A dilute water suspension of a wettable powder prepared as described in Formulation Example 7 was sufficiently sprayed using a spray-gun on a seedling of an apple tree planted in a bisque flower pot to which plant larvae of apple leaf miner just after hatching were parasitic. Thereafter the pots were placed in a green house. Fourteen days after the spraying, bores made by larvae were broken and percent mortality was assessed for all the leaves of each seedling. Three pots were used for each treatment.
# Cucumber = test: Phytotoxicity on various crops; type: in vivo; design: key: Symbol — indicates that no toxicity was observed; conditions: 500 ppm sprayed; checked visually after 10 days
# In short: (§1)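 Visual phytotoxicity rating at 10 days post-spray, greenhouse-grown plants. Treatment: EC formulation, 500 ppm a.i. in water, sprayed to full coverage. n=3 per compound.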
# Green Pepper = test: Phytotoxicity on various crops; type: in vivo; design: key: Symbol — indicates that no toxicity was observed; conditions: 500 ppm sprayed; checked visually after 10 days
# In short: as §1
# Cotton = test: Phytotoxicity on various crops; type: in vivo; design: key: Symbol — indicates that no toxicity was observed; conditions: 500 ppm sprayed; checked visually after 10 days
# In short: as §1
# egg plant = test: Phytotoxicity on various crops; type: in vivo; design: key: Symbol — indicates that no toxicity was observed; conditions: 500 ppm sprayed; checked visually after 10 days
# In short: as §1
# Kidney Bean = test: Phytotoxicity on various crops; type: in vivo; design: key: Symbol — indicates that no toxicity was observed; conditions: 500 ppm sprayed; checked visually after 10 days
# In short: as §1
# Apple = test: Phytotoxicity on various crops; type: in vivo; design: key: Symbol — indicates that no toxicity was observed; conditions: 500 ppm sprayed; checked visually after 10 days
# In short: as §1
# Beet = test: Phytotoxicity on various crops; type: in vivo; design: key: Symbol — indicates that no toxicity was observed; conditions: 500 ppm sprayed; checked visually after 10 days
# In short: as §1
# Tomato = test: Phytotoxicity on various crops; type: in vivo; design: key: Symbol — indicates that no toxicity was observed; conditions: 500 ppm sprayed; checked visually after 10 days
# In short: as §1
# Rice = test: Phytotoxicity on various crops; type: in vivo; design: key: Symbol — indicates that no toxicity was observed; conditions: 500 ppm sprayed; checked visually after 10 days
# In short: as §1
# Tea = test: Phytotoxicity on various crops; type: in vivo; design: key: Symbol — indicates that no toxicity was observed; conditions: 500 ppm sprayed; checked visually after 10 days
# In short: as §1
# Cabbage = test: Phytotoxicity on various crops; type: in vivo; design: key: Symbol — indicates that no toxicity was observed; conditions: 500 ppm sprayed; checked visually after 10 days
# In short: as §1
# tobacco cutworm [1] = test: Insecticidal effect on tobacco cutworm (cabbage leaf dip); type: in vivo, Prodenia litura; conditions: after 48 hours, 25°C
# In short: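 Cabbage leaves dipped in water-diluted emulsifiable concentrate (two formulations, tests A and B) and air-dried were fed to 3rd-instar tobacco cutworm larvae at 25°C. Percent mortality scored after 48 hours; 3 replicates of 30 insects per compound.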
# tobacco cutworm [2] = test: Long-lasting insecticidal effect on tobacco cutworm (sprayed cabbage plantlet); type: in vivo, Prodenia litura; conditions: concentration 500 (unit not given), mortality after 48 hours; for Percent Mortality After Application 3rd Day: leaves cut on 3rd day; for Percent Mortality After Application 5th Day: leaves cut on 5th day; for Percent Mortality After Application 7th Day: leaves cut on 7th day; for Percent Mortality After Application 10th Day: leaves cut on 10th day; for Percent Mortality After Application 15th Day: leaves cut on 15th day
# Experimental: (§2) (A) An emulsifiable concentrate prepared as described in Formulation Example 2 was diluted with water to a predetermined concentration and sprayed onto a cabbage plantlet in a flower pot of 15 cm in diameter using a spray-gun sufficiently and the tests plants were placed in a green house. The leaves of the plants were cut off on the 3rd, 5th, 7th, 10th and 15th day and placed in a 60 ml volume cup and 3rd-instar larvae of tobacco cutworm were put in each cup. The cups were kept in an incubator (25°C). After 48 hours, percent mortality was assessed. The tests was replicated 3 times for each compound using 30 insects in each test.
# as §2, with “(B) An” for “(A) An”, “Example 3” for “Example 2”, “and 1 5th” for “and 15th”
# [3] = Table 1, 100 ppm, wettable powder as Formulation Example 5
# [4] = Table 1, 500 ppm, wettable powder as Formulation Example 5
# [5] = Table 2, 100 ppm, wettable powder as Formulation Example 7
# [6] = Table 8, emulsifiable concentrate as Formulation Example 4
# [7] = Table 10, wettable powder as Formulation Example 5, read-out: Percent Morality (%)
# [8] = Table 3, 500 ppm, emulsifiable concentrate as Formulation Example 1
# [9] = Table 4, 100 ppm, emulsifiable concentrate as Formulation Example 3
# [10] = Table 7, emulsifiable concentrate as Formulation Example 1
Structure (SMILES),Percent Mortality (%) (rice stem borer; [3]),Percent Mortality (%) (rice stem borer; [4]),Percent Mortality (%) (rice stem borer; [5]),Percent Mortality (%) (diamond back moth; [6]),mortality at 100 ppm (smaller tea tortrix) [%],mortality at 500 ppm (apple leaf miner; [7]) [%],Phytotoxicity: Cucumber (Cucumber),Phytotoxicity: Green Pepper (Green Pepper),Phytotoxicity: Cotton (Cotton),Phytotoxicity: Egg Plant (egg plant),Phytotoxicity: Kidney Bean (Kidney Bean),Phytotoxicity: Apple (Apple),Phytotoxicity: Beet (Beet),Phytotoxicity: Tomato (Tomato),Phytotoxicity: Rice (Rice),Phytotoxicity: Tea (Tea),Phytotoxicity: Cabbage (Cabbage),Percent Mortality (%) (tobacco cutworm [1]; [8]),Percent Mortality (%) (tobacco cutworm [1]; [9]),Percent Mortality (%) (diamond back moth; [10]),other results
CCOP(=O)(Oc1ccc2c(c1)OC(C)(C)C=C2C)SC(C)CC (stereo not shown) [Compound No. 18],100,100,100,83.3,100,100,—,—,—,—,—,—,—,—,—,—,—,100,100,,
CCCSP(=O)(OCC)Oc1cccc2c1C(C)=CC(C)(C)O2 (stereo not shown) [Compound No. 22],100,100,100,100,100,,—,—,—,—,—,—,—,—,—,—,—,100,100,100,Percent Mortality After Application 3rd Day (tobacco cutworm [2]; Table 6): 100%; Percent Mortality After Application 5th Day (tobacco cutworm [2]; Table 6): 100%; Percent Mortality After Application 7th Day (tobacco cutworm [2]; Table 6): 73.3%; Percent Mortality After Application 10th Day (tobacco cutworm [2]; Table 6): 53.3%; Percent Mortality After Application Immediately after Application (tobacco cutworm [2]; Table 6): 100%
CCCSP(=O)(OCC)Oc1ccc2c(c1)OC(C)CC2(C)C (stereo not shown) [compound 17],100,100,100,100,100,,—,—,—,—,—,—,—,—,—,—,—,100,100,100,Percent Mortality After Application 3rd Day (tobacco cutworm [2]; Table 5): 100%; Percent Mortality After Application 5th Day (tobacco cutworm [2]; Table 5): 100%; Percent Mortality After Application 7th Day (tobacco cutworm [2]; Table 5): 100%; Percent Mortality After Application 10th Day (tobacco cutworm [2]; Table 5): 100%; Percent Mortality After Application 15th Day (tobacco cutworm [2]; Table 5): 53.3%; Percent Mortality After Application 3rd Day (tobacco cutworm [2]; Table 6): 100%; Percent Mortality After Application 5th Day (tobacco cutworm [2]; Table 6): 100%; Percent Mortality After Application 7th Day (tobacco cutworm [2]; Table 6): 100%; Percent Mortality After Application 10th Day (tobacco cutworm [2]; Table 6): 93.3%; Percent Mortality After Application 15th Day (tobacco cutworm [2]; Table 6): 30%; Percent Mortality After Application Immediately after Application (tobacco cutworm [2]; Table 6): 100%
CCOP(=O)(Oc1cccc2c1C(C)=CC(C)(C)O2)SC(C)CC (stereo not shown) [compound 23],100,100,100,100,100,100,—,—,—,—,—,—,—,—,—,—,—,100,100,100,"mortality at 500 ppm (apple leaf miner; Table 11, wettable powder as Formulation Example 7, read-out: Percent Mortality (%)): 100%"
